Test results: patent US20250312320A1, “METHOD AND TREATMENT FOR OSTEOARTHRITIS AND DISEASES OF CHONDROCYTE HYPERTROPHY” (The Royal Veterinary College, priority 2022, published 2025)

Test system: ATDC5 micromass
Assay: Dose response of CDK8 inhibitors on ATDC5 micromass (alizarin red / alcian blue)
Format: cell-based, mouse
Conditions: day 14
Description: (§1) In brief, 2 μl micromasses were seeded in a 96-well plate and cultured as previous in the presence of BI1347 and additional CDK8i compounds namely BRD6989, AS2863619, SEL120-34A, MSC2530818 and CCT251545. Compound concentrations were titrated 10-fold from 10 μM down to 0.1 nM. On day 14 micromasses were fixed, stained and subsequently leached to allow for dose response analysis to be conducted.
as §1, with “seeded on” for “seeded in”, “additional Mediator kinase inhibitor” for “additional CDK8i”

SMILES: Cc1c(Br)c(Br)c2c3c1nc(N1CCNCC1)n3CCC2.Cl [SEL120-34A]
- alcian blue staining (GAG deposition) (highest concentration of 10 μM): modestly reduced

SMILES: Cn1cc(-c2ccc(-c3cncc(Cl)c3N3CCC4(CCNC4=O)CC3)cc2)cn1 [CCT251545]
- alcian blue staining (GAG deposition) (highest concentration of 10 μM): modestly reduced

SMILES: CC1CCc2nc(N)c(C#N)c(-c3cccnc3)c2C1 (stereo not shown) [BRD6989]
- alcian blue staining (GAG deposition) (all concentrations (10 μM down to 0.1 nM)): maintained

SMILES: Cc1nc2ccc(-n3c(-c4nonc4N)nc4cnccc43)cc2[nH]1.Cl.Cl [AS2863619]
- alcian blue staining (GAG deposition) (highest concentration of 10 μM): modestly reduced
